Laboratory results as given in patent publication US20020046680A1, “Methine compound, a recording liquid for ink jet, and an ink jet recording method” (priority 2000, published 2002).

What was measured:
Format in all cases: physicochemical
[1] = Light fastness of recorded image (xenon light, percentage of colorant remaining); conditions: xenon light (85000 lux) for 7 days, percentage of colorant remaining at reflection densities 1, 1.5 and 2.0
Procedure: (§1) Images were respectively recorded on a photo glossy paper (Photo glossy paper EX, ink jet paper manufactured by Fuji Photo Film Co., Ltd.) by an ink jet printer (“PM-770C”, manufactured by Seiko Epson Co., Ltd.) using the obtained ink liquids 1 to 9. Hue, light fastness, humidity and heat fastness and ozone gas resistance of the obtained images were evaluated.
Regarding light fastness, an image-receiving material on which images were recorded was irradiated with xenon light (85000 lux) for 7 days using a weather meter (Atlas C. 165), the image densities before and after xenon irradiation were measured by using a reflection densitometer (X-Rite310TR), and the light fastness was evaluated in terms of the percentage of colorant remaining.
(§2) Reflection density was measured at three points which were 1, 1.5 and 2.0, and the case in which the percentage of colorant remaining were 90% or more at any of the three densities was evaluated as A, the case in which the percentage of colorant remaining was less than 90% at one or two points was evaluated as B, and the case in which the percentage of colorant remaining was less than 90% at all densities was evaluated as C.

[2] = Humidity and heat fastness of recorded image (percentage of colorant remaining); conditions: 80° C., humidity of 70%, 7 days, percentage of colorant remaining at reflection densities 1, 1.5 and 2.0
Procedure: as §1
Further, regarding humidity and heat fastness, image densities before and after storage at a temperature of 80° C. and a humidity of 70% for 7 days were measured in the same manner, and evaluated in terms of the percentage of colorant remaining.
as §2

[3] = Ozone gas resistance of recorded image (percentage of colorant remaining); conditions: ozone gas 0.5±0.1 ppm, 7 days, room temperature, dark, percentage of colorant remaining at reflection densities 1, 1.5 and 2.0
Procedure: Regarding ozone gas resistance, the photo glossy papers on which the above-described images were formed were stood alone for 7 days in a box having an ozone gas concentration of 0.5±0.1 ppm in which were set at room temperature and in a dark room, and image densities before and after storage under ozone gas atmosphere were measured by using a reflection densitometer (X-Rite310TR), and evaluated in terms of the percentage of colorant remaining. The fore-mentioned reflection density was measured at three points which were 1, 1.5 and 2.0. The ozone gas concentration in the box was measured using an ozone gas monitor manufactured by APPLICS (Model OZG-EM-01). The case in which the percentage of colorant remaining were 70% or more at any of the densities was evaluated as A, the case in which the percentage of colorant remaining was less than 70% at one or two points was evaluated as B, and the case in which the percentage of colorant remaining was less than 70% at all densities was evaluated as C. It was evaluated at three stages.

For `Cc1ccc2[nH]c3cc4c(=O)c5cc(C)ccc5[nH]c4cc3c(=O)c2c1` [C. I. Pigment Red 122], the Light fastness [1] was “A (the percentage of colorant remaining were 90% or more at any of the three densities)”, the “Humidity and heat fastness” value [2] was “A (the percentage of colorant remaining were 90% or more at any of the three densities)” and the ozone resistance [3] was “A (the percentage of colorant remaining were 70% or more at any of the densities)”.
